pIC50: −log10 of the molar value. Active and inactive are the calls of the source. The rule behind the calls is not given here.
Assays:
[1] = test system: Mus musculus; test: Anticonvulsant activity against subcutaneous metrazole-induced seizures in ip dosed albino CF1 mouse assessed as minimum effective dose after 4 hrs; format: functional; settings: albino CF1, 4 h, read-out: MED
[2] = test system: Rattus norvegicus; test: Anticonvulsant activity in albino Sprague-Dawley rat assessed as protection against maximal electroshock-induced seizures at 30 mg/kg, po after 4 hrs; format: functional, organism-based; set-up: dose 30 mg/kg
[3] = test system: Mus musculus; test: Anticonvulsant activity against maximal electroshock-induced seizures in ip dosed albino CF1 mouse assessed as minimum effective dose after 4 hrs; format: functional; settings: read-out: MED
[4] = test system: Mus musculus; test: Neurotoxicity in albino CF1 mouse assessed as minimal motor impairment at 300 mg/kg, ip after 4 hrs by rotarod test; format: toxicity, organism-based; set-up: dose 300 mg/kg, route intraperitoneal; settings: in vivo
[5] = test system: Mus musculus; test: Anticonvulsant activity in albino CF1 mouse assessed as protection against maximal electroshock-induced seizures at 30 mg/kg, ip after 0.5 hrs; format: functional, organism-based; set-up: dose 30 mg/kg
[6] = test system: Mus musculus; test: Neurotoxicity in albino CF1 mouse assessed as minimal motor impairment at 350 mg/kg, ip after 0.25 hrs by rotarod test; format: toxicity, organism-based; set-up: dose 350 mg/kg, route intraperitoneal; settings: in vivo
[7] = test system: Mus musculus; test: Anticonvulsant activity in albino CF1 mouse assessed as protection against subcutaneous metrazole-induced seizures at 70 mg/kg, ip after 0.25 hrs; format: functional, organism-based; set-up: dose 70 mg/kg
[8] = test system: Mus musculus; test: Anticonvulsant activity in albino CF1 mouse assessed as protection against maximal electroshock-induced seizures at 300 mg/kg, ip after 4 hrs; format: functional, organism-based; set-up: dose 300 mg/kg
[9] = test system: Mus musculus; test: Neurotoxicity in ip dosed albino CF1 mouse assessed as minimum dose required to cause toxicity after 4 hrs by rotarod test; format: organism-based; settings: in vivo
[10] = test system: Mus musculus; test: Anticonvulsant activity in albino CF1 mouse assessed as protection against subcutaneous metrazole-induced seizures at 300 mg/kg, ip after 4 hrs; format: functional, organism-based; set-up: dose 300 mg/kg
[11] = test system: Mus musculus; test: Neurotoxicity in albino CF1 mouse assessed as minimal motor impairment at 100 mg/kg, ip after 0.5 hrs by rotarod test; format: toxicity, organism-based; set-up: dose 100 mg/kg, route intraperitoneal; settings: in vivo
[12] = species: Mus musculus; test: Protective index, ratio of TD50 for albino CF1 mouse by rotarod test to ED50 for albino CF1 mouse by maximal electroshock seizures test; format: functional
[13] = test system: Mus musculus; test: Neurotoxicity in ip dosed albino CF1 mouse assessed as minimum dose required to cause toxicity after 0.5 hrs by rotarod test; format: organism-based; settings: in vivo
[14] = test system: Mus musculus; test: Anticonvulsant activity ip dosed albino CF1 mouse assessed as protection against subcutaneous metrazole-induced seizures after 0.25 hrs; format: functional; settings: albino CF1, 0.25 h
[15] = test system: Mus musculus; test: Anticonvulsant activity against subcutaneous metrazole-induced seizures in ip dosed albino CF1 mouse assessed as minimum effective dose after 0.5 hrs; format: functional; settings: albino CF1, 0.5 h, read-out: MED
[16] = test system: Mus musculus; test: Neurotoxicity in ip dosed albino CF1 mouse assessed as minimal motor impairment after 0.25 hrs by rotarod test; format: toxicity, organism-based; settings: in vivo
[17] = test system: Mus musculus; test: Protective index, ratio of TD50 for albino CF1 mouse by rotarod test to ED50 for albino CF1 mouse by subcutaneous metrazol seizures test; format: functional
[18] = test system: Mus musculus; test: Anticonvulsant activity in albino CF1 mouse assessed as protection against subcutaneous metrazole-induced seizures at 30 mg/kg, ip after 4 hrs; format: functional, organism-based; set-up: dose 30 mg/kg
[19] = test system: Mus musculus; test: Neurotoxicity in albino CF1 mouse assessed as minimal motor impairment at 30 mg/kg, ip after 4 hrs by rotarod test; format: toxicity, organism-based; set-up: dose 30 mg/kg, route intraperitoneal; settings: in vivo
[20] = test system: Mus musculus; test: Neurotoxicity in albino CF1 mouse assessed as minimal motor impairment at 100 mg/kg, ip after 4 hrs by rotarod test; format: toxicity, organism-based; set-up: dose 100 mg/kg, route intraperitoneal; settings: in vivo
[21] = test system: Mus musculus; test: Anticonvulsant activity in albino CF1 mouse assessed as protection against maximal electroshock-induced seizures at 300 mg/kg, ip after 0.5 hrs; format: functional, organism-based; set-up: dose 300 mg/kg
[22] = test system: Mus musculus; test: Anticonvulsant activity against maximal electroshock-induced seizures in ip dosed albino CF1 mouse assessed as minimum effective dose after 0.5 hrs; format: functional; settings: read-out: MED
[23] = test system: Rattus norvegicus; test: Anticonvulsant activity in albino Sprague-Dawley rat assessed as protection against maximal electroshock-induced seizures at 30 mg/kg, po after 0.5 hrs; format: functional, organism-based; set-up: dose 30 mg/kg
[24] = test system: Mus musculus; test: Anticonvulsant activity in albino CF1 mouse assessed as protection against subcutaneous metrazole-induced seizures at 30 mg/kg, ip after 0.5 hrs; format: functional, organism-based; set-up: dose 30 mg/kg
[25] = test system: Mus musculus; test: Anticonvulsant activity ip dosed albino CF1 mouse assessed as protection against maximal electroshock-induced seizures after 0.25 hrs; format: functional
[26] = target: Sodium channel protein type 2 subunit alpha (Homo sapiens, UniProt Q99250); test: Inhibition of human NaV1.2 expressed in HEK cells at -60 mV holding potential by patch clamp recording technique; format: cell-based, HEK293
Chain of Sodium channel protein type 2 subunit alpha (Q99250 whole entry): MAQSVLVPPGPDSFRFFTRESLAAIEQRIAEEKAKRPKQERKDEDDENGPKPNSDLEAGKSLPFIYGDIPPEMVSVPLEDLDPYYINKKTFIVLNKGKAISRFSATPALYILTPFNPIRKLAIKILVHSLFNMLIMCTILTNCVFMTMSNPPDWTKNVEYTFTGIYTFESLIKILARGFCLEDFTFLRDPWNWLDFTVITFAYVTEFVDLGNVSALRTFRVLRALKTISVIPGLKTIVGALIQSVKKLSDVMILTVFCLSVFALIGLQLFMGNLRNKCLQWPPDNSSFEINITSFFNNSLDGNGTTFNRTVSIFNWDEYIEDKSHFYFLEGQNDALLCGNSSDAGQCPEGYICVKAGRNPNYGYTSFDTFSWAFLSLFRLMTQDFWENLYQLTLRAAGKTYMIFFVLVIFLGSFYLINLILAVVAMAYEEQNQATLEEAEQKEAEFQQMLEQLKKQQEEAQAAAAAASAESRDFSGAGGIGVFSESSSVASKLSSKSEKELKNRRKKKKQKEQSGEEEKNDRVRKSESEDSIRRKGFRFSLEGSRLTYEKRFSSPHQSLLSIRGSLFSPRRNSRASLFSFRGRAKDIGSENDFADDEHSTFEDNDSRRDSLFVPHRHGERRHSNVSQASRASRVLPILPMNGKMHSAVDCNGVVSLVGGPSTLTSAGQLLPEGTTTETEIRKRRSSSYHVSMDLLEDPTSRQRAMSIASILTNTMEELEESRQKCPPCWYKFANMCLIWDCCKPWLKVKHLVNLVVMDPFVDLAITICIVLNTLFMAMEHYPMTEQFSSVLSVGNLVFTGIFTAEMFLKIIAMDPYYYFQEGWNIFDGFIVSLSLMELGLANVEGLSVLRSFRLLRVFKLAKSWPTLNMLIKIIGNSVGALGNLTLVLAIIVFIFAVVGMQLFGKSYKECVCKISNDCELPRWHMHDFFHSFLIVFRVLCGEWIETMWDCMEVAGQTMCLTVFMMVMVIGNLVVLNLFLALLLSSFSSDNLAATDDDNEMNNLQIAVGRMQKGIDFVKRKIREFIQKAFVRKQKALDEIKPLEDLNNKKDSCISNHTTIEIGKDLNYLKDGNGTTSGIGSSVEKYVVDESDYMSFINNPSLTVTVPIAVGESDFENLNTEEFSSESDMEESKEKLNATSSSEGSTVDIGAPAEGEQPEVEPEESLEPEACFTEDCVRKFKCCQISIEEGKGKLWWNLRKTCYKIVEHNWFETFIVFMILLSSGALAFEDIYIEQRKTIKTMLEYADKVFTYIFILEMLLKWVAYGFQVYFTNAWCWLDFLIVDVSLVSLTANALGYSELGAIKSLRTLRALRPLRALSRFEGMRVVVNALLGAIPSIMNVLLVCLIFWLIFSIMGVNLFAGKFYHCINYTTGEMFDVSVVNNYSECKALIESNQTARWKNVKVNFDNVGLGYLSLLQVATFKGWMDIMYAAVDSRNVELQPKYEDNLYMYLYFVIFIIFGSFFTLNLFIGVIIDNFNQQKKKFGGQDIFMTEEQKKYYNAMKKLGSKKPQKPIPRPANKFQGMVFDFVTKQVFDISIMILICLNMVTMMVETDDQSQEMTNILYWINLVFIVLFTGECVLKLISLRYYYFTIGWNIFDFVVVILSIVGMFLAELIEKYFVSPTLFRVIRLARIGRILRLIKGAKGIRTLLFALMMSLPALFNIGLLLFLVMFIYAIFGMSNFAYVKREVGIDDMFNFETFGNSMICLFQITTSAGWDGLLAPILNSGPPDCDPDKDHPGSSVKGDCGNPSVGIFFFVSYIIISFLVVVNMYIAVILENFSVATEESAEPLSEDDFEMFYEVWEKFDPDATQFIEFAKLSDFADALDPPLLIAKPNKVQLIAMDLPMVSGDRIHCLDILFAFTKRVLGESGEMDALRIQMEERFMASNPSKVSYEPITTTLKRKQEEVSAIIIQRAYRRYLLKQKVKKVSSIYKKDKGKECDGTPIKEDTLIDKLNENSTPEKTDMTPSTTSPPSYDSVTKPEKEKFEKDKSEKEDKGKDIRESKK

[27] = test system: Rattus norvegicus; test: Anticonvulsant activity in albino Sprague-Dawley rat assessed as protection against maximal electroshock-induced seizures at 30 mg/kg, po after 0.25 hrs; format: functional, organism-based; set-up: dose 30 mg/kg
[28] = test system: Mus musculus; test: Neurotoxicity in albino CF1 mouse assessed as minimal motor impairment at 30 to 300 mg/kg, ip after 0.5 hrs by rotarod test; settings: in vivo
[29] = test system: Mus musculus; test: Anticonvulsant activity in albino CF1 mouse assessed as protection against maximal electroshock-induced seizures at 35 mg/kg, ip after 0.25 hrs; format: functional, organism-based; set-up: dose 35 mg/kg
[30] = test system: Mus musculus; test: Anticonvulsant activity in albino CF1 mouse assessed as protection against subcutaneous metrazole-induced seizures at 100 mg/kg, ip after 0.5 hrs; format: functional, organism-based; set-up: dose 100 mg/kg
[31] = test system: Mus musculus; test: Anticonvulsant activity in albino CF1 mouse assessed as protection against maximal electroshock-induced seizures at 100 mg/kg, ip after 0.5 hrs; format: functional, organism-based; set-up: dose 100 mg/kg
[32] = test system: Mus musculus; test: Anticonvulsant activity in albino CF1 mouse assessed as protection against maximal electroshock-induced seizures at 30 mg/kg, ip after 4 hrs; format: functional, organism-based; set-up: dose 30 mg/kg
[33] = test system: Mus musculus; test: Anticonvulsant activity in albino CF1 mouse assessed as protection against maximal electroshock-induced seizures at 70 mg/kg, ip after 0.25 hrs; format: functional, organism-based; set-up: dose 70 mg/kg
[34] = test system: Mus musculus; test: Neurotoxicity in albino CF1 mouse assessed as minimal motor impairment at 300 mg/kg, ip after 0.5 hrs by rotarod test; format: toxicity, organism-based; set-up: dose 300 mg/kg, route intraperitoneal; settings: in vivo
[35] = test system: Mus musculus; test: Neurotoxicity in albino CF1 mouse assessed as minimal motor impairment at 30 mg/kg, ip after 0.5 hrs by rotarod test; format: toxicity, organism-based; set-up: dose 30 mg/kg, route intraperitoneal; settings: in vivo
[36] = test system: Mus musculus; test: Neurotoxicity in albino CF1 mouse assessed as minimal motor impairment at 70 mg/kg, ip after 0.25 hrs by rotarod test; format: toxicity, organism-based; set-up: dose 70 mg/kg, route intraperitoneal; settings: in vivo
[37] = test system: Rattus norvegicus; test: Anticonvulsant activity in albino Sprague-Dawley rat assessed as protection against maximal electroshock-induced seizures at 30 mg/kg, po after 2 hrs; format: functional, organism-based; set-up: dose 30 mg/kg
[38] = test system: Rattus norvegicus; test: Neurotoxicity in albino Sprague-Dawley rat assessed as minimal motor impairment at 30 mg/kg, po by rotarod test; format: toxicity, organism-based; set-up: dose 30 mg/kg, route oral; settings: in vivo
[39] = test system: Mus musculus; test: Neurotoxicity in albino CF1 mouse assessed as minimal motor impairment at 30 to 300 mg/kg, po after 4 hrs by rotarod test; format: toxicity, organism-based; set-up: dose 30-300 mg/kg, route oral; settings: in vivo
[40] = test system: Mus musculus; test: Anticonvulsant activity in albino CF1 mouse assessed as protection against subcutaneous metrazole-induced seizures at 100 mg/kg, ip after 4 hrs; format: functional, organism-based; set-up: dose 100 mg/kg
[41] = test system: Mus musculus; test: Anticonvulsant activity in albino CF1 mouse assessed as protection against subcutaneous metrazole-induced seizures at 300 mg/kg, ip after 0.5 hrs; format: functional, organism-based; set-up: dose 300 mg/kg

## COc1ccc(-c2nc(-c3ccccc3)c[nH]2)cc1
[1]
  minimal effective dose: > 300 mg/kg
[2]
  Activity: inactive
[3]
  minimal effective dose: 100 mg/kg
[4]
  Activity: Toxic
[5]
  Activity: inactive
[6]
  Activity: Toxic
[7]
  Activity: inactive
[8]
  Activity: Active
[9]
  MED: 100 mg/kg
[10]
  Activity: inactive
[11]
  Activity: Non-toxic
[12]
  PI: 4.3
[13]
  MED: 100 mg/kg
[14]
  ED50: 142 mg/kg
[15]
  minimal effective dose: 100 mg/kg
[16]
  TD50: 200.8 mg/kg
[17]
  PI: 1.4
[18]
  Activity: inactive
[19]
  Activity: Non-toxic
[20]
  Activity: Non-toxic
[21]
  Activity: Active
[22]
  minimal effective dose: > 30 mg/kg
[23]
  Activity: inactive
[24]
  Activity: inactive
[25]
  ED50: 46.8 mg/kg
[26]
  pIC50: 4.67
[27]
  Activity: inactive
[28]
  Activity: Non-toxic
[29]
  Activity: inactive
[30]
  Activity: inactive
[31]
  Activity: Active
[32]
  Activity: inactive
[33]
  Activity: Active
[34]
  Activity: Toxic
[35]
  Activity: Non-toxic
[36]
  Activity: Non-toxic
[37]
  Activity: inactive
[38]
  Activity: Non-toxic
[39]
  Activity: Non-toxic
[40]
  Activity: inactive
[41]
  Activity: Active
